Measured values: patent publication US20260250318A1, “COMPOSITIONS AND METHODS FOR CROSSING THE BLOOD BRAIN BARRIER” (VOYAGER THERAPEUTICS, INC., priority 2022, published 2026)

Legend:
Conditions in all cases: synthetic library passage 3, intravenous, relative to wild-type AAV9
[1] = system: brain; experiment: NGS fold enrichment of synthetic library (passage 3) in BALB/c mice, first cross-species screen; assay type: in vivo
How it was run: (§1)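 Fold enrichment versus wild-type AAV9 was derived by NGS of RT-PCR-amplified RNA from nervous tissue, collected e.g. 28 days after IV dosing […]. The library (passage 3) was given to two NHPs aged 2-4 years and to 6-8-week BALB/c and C57Bl/6 mice (n=3 each).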

[2] = system: brain; experiment: NGS fold enrichment of synthetic library (passage 3) in C57Bl/6 mice, first cross-species screen; assay type: in vivo
How it was run: as §1

[3] = system: brain, spinal cord, and DRG of the NHPs; experiment: NGS fold enrichment of synthetic library (passage 3) in NHPs, first cross-species screen; assay type: in vivo, cynomolgus macaques (Macaca fascicularis)
How it was run: as §1

[4] = RNA from brain of BALB/c mice, NGS
[5] = RNA from brain of C57Bl/6 mice, NGS
[6] = RNA from spinal cord of NHPs, NGS

| Sequence | Fold enrichment over AAV9 in the brain of Mice (BALB/c) [1, 4] [fold] | Fold enrichment over AAV9 in the brain of Mice (C57Bl/6) [2, 5] [fold] | Fold enrichment over AAV9 in the brain of NHPs ([3]; RNA from brain of NHPs, NGS) [fold] | Fold enrichment over AAV9 in the spinal cord of NHPs [3, 6] [fold] | Fold enrichment over AAV9 in the brain of Mice (BALB/c) ([1]; RNA NGS, brain of BALB/c mice) [fold] | Fold enrichment over AAV9 in the brain of Mice (C57Bl/6) ([2]; RNA NGS, brain of C57Bl/6 mice) [fold] | Fold enrichment over AAV9 in the brain of NHPs ([3]; RNA NGS, brain of NHPs) [fold] | Fold enrichment over AAV9 in the spinal cord of NHPs ([3]; RNA NGS, spinal cord of NHPs) [fold] |
| --- | --- | --- | --- | --- | --- | --- | --- | --- |
| GRLSNAHGGQNQQT | 0.725 | 1.036 | 1.245 | 0.839 | – | – | – | – |
| GSLVSTQSGQNQQT | 0.650 | 1.282 | 1.305 | 1.293 | – | – | – | – |
| GSGQNQQPLDTSRT | – | – | – | – | 0.376 | 0.491 | 1.015 | 0.775 |
| GSGQVGRLLQNQQT | – | – | – | – | 0.748 | 0.773 | 1.899 | 1.762 |
| GSGQSREISLNQQT | – | – | – | – | 0.282 | 0.594 | 1.088 | 6.954 |
| GSGFPKSTEQNQQT | 0.194 | 0.610 | 1.376 | 2.058 | – | – | – | – |
| GSGQNQRASILVQT | 0.569 | 0.531 | 1.162 | 3.632 | – | – | – | – |
| GSTGSHSAGQNQHT | – | – | – | – | 0.850 | 1.190 | 3.717 | 0.285 |
| GSGTSGKTGKNQQT | 0.676 | 0.358 | 1.333 | 4.033 | – | – | – | – |
| GMRMEYQSGQNQQT | – | – | – | – | 0.632 | 0.644 | 1.729 | 3.695 |
| GSGQNQRTMVATQT | 0.554 | 0.649 | 1.130 | 1.122 | – | – | – | – |
| GSGSVGFIGQNQQT | 0.445 | 0.689 | 1.227 | 8.261 | – | – | – | – |
| GSVFGVPSGQNQQT | – | – | – | – | 0.213 | 0.685 | 1.474 | 1.248 |
| GSDGKMHRGQNQQT | 0.776 | 1.826 | 1.227 | 0.000 | – | – | – | – |
| GGAGSAHSGQNQQT | – | – | – | – | 1.092 | 0.474 | 1.003 | 6.108 |
| GSGQNQQSMGTFTT | – | – | – | – | 0.399 | 1.792 | 1.625 | 0.000 |

| Sequence | Fold enrichment over AAV9 in the brain of Mice (BALB/c) [1, 4] [fold] | Fold enrichment over AAV9 in the brain of Mice (C57Bl/6) [2, 5] [fold] | Fold enrichment over AAV9 in the brain of NHPs ([3]; RNA from brain of NHPs, NGS) [fold] | Fold enrichment over AAV9 in the spinal cord of NHPs [3, 6] [fold] | Fold enrichment over AAV9 in the brain of Mice (BALB/c) ([1]; RNA NGS, brain of BALB/c mice) [fold] | Fold enrichment over AAV9 in the brain of Mice (C57Bl/6) ([2]; RNA NGS, brain of C57Bl/6 mice) [fold] | Fold enrichment over AAV9 in the brain of NHPs ([3]; RNA NGS, brain of NHPs) [fold] | Fold enrichment over AAV9 in the spinal cord of NHPs ([3]; RNA NGS, spinal cord of NHPs) [fold] |
| --- | --- | --- | --- | --- | --- | --- | --- | --- |
| GSGQNQQSHLRTNT | 0.718 | 1.022 | 1.251 | 4.583 | – | – | – | – |
| GIFMQTPSGQNQQT | – | – | – | – | 0.252 | 0.938 | 2.344 | 6.198 |
| GPRLSDQSGQNQQT | – | – | – | – | 0.579 | 0.640 | 1.511 | 0.364 |
| GSGPWSAGLQNQQT | – | – | – | – | 0.539 | 0.700 | 1.067 | 0.947 |
| GTPTSPSSGQNQQT | – | – | – | – | 0.662 | 0.833 | 1.086 | 4.558 |
| GSSTTIVSGQNHQT | – | – | – | – | 0.672 | 0.993 | 1.411 | 0.000 |
| GSGQGIHSSVNQQT | – | – | – | – | 0.634 | 0.632 | 1.981 | 4.873 |
| GGTRVVDSGQNQQT | – | – | – | – | 0.370 | 0.676 | 1.676 | 9.735 |
| GSGQNQQNLGKLNT | 0.687 | 0.919 | 1.141 | 0.000 | – | – | – | – |
| GSGQIRHSDQNQQT | – | – | – | – | 0.320 | 1.170 | 2.600 | 12.884 |
| GSGSPHARMQNQQT | – | – | – | – | 4.164 | 7.795 | 56.138 | 22.690 |
| GLSAEKSSGQNQQT | – | – | – | – | 0.303 | 0.629 | 1.047 | 7.203 |
| GSGQNAQQAAAQQT | – | – | – | – | 0.604 | 0.937 | 1.568 | 4.239 |
| GSGQNQQTNLGHTT | 1.281 | 1.343 | 1.383 | 1.523 | – | – | – | – |
| GSSVNSMIGQNQQT | 0.580 | 0.976 | 1.239 | 0.000 | – | – | – | – |
